# Test results published in US5366983A, “Use of quaternary ammonium compounds to remove salmonella contamination from meat products” (The Board of Trustees of The University of Arkansas, priority 1992, dated 1994).
# Several values for one entry are separate records, joined by “and”; a condition that tells them apart may be missing. Equal values may be shown once. Read-outs that look alike come from different tables or passages of the source.
# Experiments:
# [1] = tested on: Salmonella typhimurium ATCC 14028 attached to human buccal epithelial cells; experiment: microbe, parasite or virus in culture; assay type: cell-based; conditions: Table A-3
# [2] = tested on: Salmonella typhimurium on chicken skin; experiment: Effect of surfactants on Salmonella attached to chicken skin, drumsticks (Tables F1-F4)
# [3] = tested on: Salmonella typhimurium TA98; experiment: Salmonella reversion assay after heating at 205° C., TA98; assay type: cell-based; conditions: for Revertants/plate: heated at 205° C.
# Procedure: (§1) Test strains TA98 and TA100 were used. Again, mutagenicities were determined both in the absence and in the presence of the mammalian liver S9 activating system.
# (§2) A response that was two times that of the solvent control was considered a positive response.
# [4] = tested on: Salmonella typhimurium TA100; experiment: Salmonella reversion assay after heating at 205° C., TA100; assay type: cell-based; conditions: for Revertants/plate: heated at 205° C.
# Procedure: as §1, §2
# adherent S. typhimurium = conditions: 10 minutes
# [5] = tested on: Salmonella typhimurium ATCC 14028
# Procedure: Salmonella typhimurium ATCC 14028 was used for these studies and prepared as follows. A 16 hour culture in nutrient broth (BBL) was centrifuged at 15,000 rpm for 10 minutes at 4° C. The deposit was washed once with 0.04 M potassium phosphate buffer (PPB) at pH 7.0 and resuspended in fresh PPB to contain 1-2×10^9 bacteria/ml. Samples (1.0 ml) of this suspension were added into a 1.8 ml Eppendorff vial and centrifuged at 14,000 rpm for 4 minutes. The pellets were first suspended in 1.0 ml of PPB or 1.0 ml of an appropriate concentration of test chemical solution, and then centrifuged and washed with the buffer under the same conditions. After washing, the samples of bacterial suspensions were appropriately diluted in PPB. Duplicate 0.05 ml samples were withdrawn and immediately added onto nutrient agar plates. Colonies were counted after 24 hours incubation at 37° C.
structure (smiles),measurement,setting,value
"CCCCCCCCCCCCCCCC[n+]1ccccc1 [CPC, cetylpyridinium chloride]","adherence, mean value of attached bacteria",[1]; 2.5 ug/ml,73 ± 55
same,"adherence, mean value of attached bacteria",[1]; 5 ug/ml,42 ± 22
same,"adherence, mean value of attached bacteria",[1]; 10 ug/ml,28 ± 10
same,"Enrichment, chicken legs out of ten","[2]; 0.1%, 4° C.",8/10
same,Rinse H2O,"[2]; 0.1%, 4° C.",0 CFU/ml
same,Surfactant Solution,"[2]; 0.1%, 4° C.",0 CFU/ml
same,"Swabs, chicken legs producing the notated number of colonies","[2]; 0.1%, 4° C.",8/10
same,"Swabs, colonies","[2]; 0.1%, 4° C.",+ (1-10)
same,"Wash H2O, chicken legs producing the notated number of colonies","[2]; 0.1%, 4° C.",8/10
same,"Wash H2O, colonies","[2]; 0.1%, 4° C.",+ (1-10)
same,"Enrichment, chicken legs out of ten","[2]; 0.1%, 25° C.",0/10
same,Rinse H2O,"[2]; 0.1%, 25° C.",0 CFU/ml
same,Surfactant Solution,"[2]; 0.1%, 25° C.",0 CFU/ml
same,"Swabs, chicken legs producing the notated number of colonies","[2]; 0.1%, 25° C.",7/10
same,"Swabs, colonies","[2]; 0.1%, 25° C.",+ (1-10)
same,"Wash H2O, chicken legs producing the notated number of colonies","[2]; 0.1%, 25° C.",8/10
same,"Wash H2O, colonies","[2]; 0.1%, 25° C.",++ (11-100)
same,"Enrichment, chicken legs out of ten","[2]; 0.5%, 4° C.",9/10
same,Rinse H2O,"[2]; 0.5%, 4° C.",0 CFU/ml
same,Surfactant Solution,"[2]; 0.5%, 4° C.",0 CFU/ml
same,"Swabs, chicken legs producing the notated number of colonies","[2]; 0.5%, 4° C.",9/10
same,"Swabs, colonies","[2]; 0.5%, 4° C.",+ (1-10)
same,"Wash H2O, chicken legs producing the notated number of colonies","[2]; 0.5%, 4° C.",7/10
same,"Wash H2O, colonies","[2]; 0.5%, 4° C.",+ (1-10)
same,"Enrichment, chicken legs out of ten","[2]; 1.0%, 4° C.",5/10
same,Rinse H2O,"[2]; 1.0%, 4° C.",0 CFU/ml
same,Surfactant Solution,"[2]; 1.0%, 4° C.",0 CFU/ml
same,"Swabs, chicken legs producing the notated number of colonies","[2]; 1.0%, 4° C.",5/10
same,"Swabs, colonies","[2]; 1.0%, 4° C.",+ (1-10)
same,"Wash H2O, chicken legs producing the notated number of colonies","[2]; 1.0%, 4° C.",9/10
same,"Wash H2O, colonies","[2]; 1.0%, 4° C.",+ (1-10)
same,"Enrichment, chicken legs out of ten","[2]; .01%, 25° C.",10/10
same,Rinse H2O,"[2]; .01%, 25° C.",+ (1-10)
same,Surfactant Solution,"[2]; .01%, 25° C.",0 CFU/ml
same,"Swabs, chicken legs producing the notated number of colonies","[2]; .01%, 25° C.",9/10
same,"Swabs, colonies","[2]; .01%, 25° C.",++ (11-100)
same,"Wash H2O, chicken legs producing the notated number of colonies","[2]; .01%, 25° C.",10/10
same,"Wash H2O, colonies","[2]; .01%, 25° C.",+++ (101-300)
same,"Enrichment, chicken legs out of ten","[2]; .05%, 25° C.",7/10
same,Rinse H2O,"[2]; .05%, 25° C.",0 CFU/ml
same,Surfactant Solution,"[2]; .05%, 25° C.",0 CFU/ml
same,"Swabs, chicken legs producing the notated number of colonies","[2]; .05%, 25° C.",9/10
same,"Swabs, colonies","[2]; .05%, 25° C.",+ (1-10)
same,"Wash H2O, chicken legs producing the notated number of colonies","[2]; .05%, 25° C.",10/10
same,"Wash H2O, colonies","[2]; .05%, 25° C.",++ (11-100)
same,Revertants/plate,"[3]; TA98, +S9, 0.1 μg/plate",26 ± 4 Revertants/plate
same,Revertants/plate,"[3]; TA98, +S9, 1.0 μg/plate",20 ± 1 Revertants/plate
same,Revertants/plate,"[3]; TA98, +S9, 5.0 μg/plate",25 ± 4 Revertants/plate
same,Revertants/plate,"[3]; TA98, +S9, 10.0 μg/plate",22 ± 3 Revertants/plate
same,Revertants/plate,"[3]; TA98, -S9, 0.1 μg/plate",16 ± 3 Revertants/plate
same,Revertants/plate,"[3]; TA98, -S9, 1.0 μg/plate",20 ± 5 Revertants/plate
same,Revertants/plate,"[3]; TA98, -S9, 5.0 μg/plate",22 ± 3 Revertants/plate
same,Revertants/plate,"[3]; TA98, -S9, 10.0 μg/plate",25 ± 3 Revertants/plate
same,mutagenicity after heating in vegetable oil (in words),"[3]; TA98, absence or presence of S9, all concentrations tested",did not produce substances which are mutagenic
same,Revertants/plate,"[4]; TA100, +S9, 0.1 μg/plate",122 ± 3 Revertants/plate
same,Revertants/plate,"[4]; TA100, +S9, 1.0 μg/plate",126 ± 14 Revertants/plate
same,Revertants/plate,"[4]; TA100, +S9, 5.0 μg/plate",118 ± 10 Revertants/plate
same,Revertants/plate,"[4]; TA100, +S9, 10.0 μg/plate",123 ± 8 Revertants/plate
same,Revertants/plate,"[4]; TA100, -S9, 0.1 μg/plate",117 ± 6 Revertants/plate
same,Revertants/plate,"[4]; TA100, -S9, 1.0 μg/plate",113 ± 8 Revertants/plate
same,Revertants/plate,"[4]; TA100, -S9, 5.0 μg/plate",123 ± 4 Revertants/plate
same,Revertants/plate,"[4]; TA100, -S9, 10.0 μg/plate",126 ± 4 Revertants/plate
same,mutagenicity after heating in vegetable oil (in words),"[4]; TA100, absence or presence of S9, all concentrations tested",did not produce substances which are mutagenic
same,Colony Count (±SD),adherent S. typhimurium; 5 μg/ml,2.52 ± 2.69 × 10^3
same,Colony Count (±SD),adherent S. typhimurium; 10 μg/ml,4.40 ± 5.68 × 10^2
same,Colony Count (±SD),adherent S. typhimurium; 50 μg/ml,2.0 ± 4.5 × 10^1
same,bacterial viability,[5]; CPC 10 ug/ml + 0.0625% Na2-EDTA,6.21 ± 0.75 × 10^8 CFU/ml
same,bacterial viability,[5]; CPC 10 ug/ml + 0.125% Na2-EDTA,6.24 ± 0.79 × 10^8 CFU/ml
same,bacterial viability,[5]; CPC 10 ug/ml + 0.5% Na2-EDTA,5.79 ± 0.1 × 10^8 CFU/ml
same,bacterial viability,"[5]; CPC 10 ug/ml, no chelating agent",6.08 ± 0.6 × 10^8 CFU/ml
same,bacterial viability,[5]; CPC 17 ug/ml + 0.125% Na2-EDTA,1.52 ± 0.42 × 10^7 CFU/ml
same,bacterial viability,[5]; CPC 17 ug/ml + 0.5% Na2-EDTA,4.8 ± 0.42 × 10^6 CFU/ml
same,bacterial viability,"[5]; CPC 17 ug/ml, no chelating agent",7.25 ± 0.1 × 10^7 CFU/ml
same,bacterial viability,[5]; CPC 20 ug/ml + 0.25% EGTA,3.01 ± 0.44 CFU/ml
same,bacterial viability,[5]; CPC 20 ug/ml + 1% EGTA,2.64 ± 0.32 CFU/ml
same,bacterial viability,[5]; CPC 30 ug/ml + 0.25% EGTA,85 ± 65 CFU/ml
same,bacterial viability,[5]; CPC 30 ug/ml + 0.25% Na2-EDTA,20 ± 13 CFU/ml
same,bacterial viability,"[5]; CPC 30 ug/ml, no chelating agent",117 ± 189 CFU/ml and 82 ± 73 CFU/ml
same,bacterial viability,[5]; CPC 40 ug/ml + 1% EGTA,0 CFU/ml
same,bacterial viability,"[5]; CPC 40 ug/ml, no chelating agent",8 ± 14 CFU/ml
same,decrease in cell viability,[5]; CPC and Na2-EDTA used together,2.5 fold
same,log reduction at 20 µg/mL,"[5]; Salmonella enterica, read-out: decrease in CFU/ml",1.5
